From article PMC5046821 (Biochemistry, 2016)

Biological target: Irp3 (Yersinia enterocolitica, UniProt O54512)
Experiment: X-ray crystallography, […] Å, cocrystal
Type: binding
Settings: with NADP+; pH 7.3; active site, substrate analogue, occupancy 70-85%

O=C(O)[C@@H]1CSC(c2csc(-c3ccccc3O)n2)=N1 [HPTT-COOH, 2′-(2-Hydroxyphenyl)-4,5-dihydro[2,4′-bisthiazole]-4-carboxylic Acid]
X-ray crystallography, 1.28 Å, cocrystal: A holo-Irp3 structure was determined with both HPTT-COOH and NADP^+ bound.
